Tests used:
[1] = MTT cytotoxicity assay, WI-38 normal cells; assay type: cell-based; conditions: human, WI-38 lung fibroblasts (normal cells); for CC50 at 72 h: WI-38, 72 h incubation, MTT; for viability at 72 h: WI-38, 1 × 10^–4 M, mean ± SD (n = 3), read-out: Cell viability
[2] = MTT cytotoxicity assay, CT-26; assay type: cell-based, murine; conditions: mouse (CT-26) and human (WI-38); CC50 of WI-38 divided by CC50 of CT-26; read-out: SCI (selective cytotoxicity index)
From the text: (§1) The cytotoxicity of the test compounds was studied using the MTT assay against a number of cell lines: CT-26 murine colon carcinoma, 4T1 murine mammary carcinoma, MDA-MB-231 human breast adenocarcinoma, COLO201 human colorectal adenocarcinoma, HepG2 human hepatocellular carcinoma, A549 human non-small-cell lung carcinoma, SK-BR-3 human breast adenocarcinoma, SNU-1 human gastric carcinoma, Jurkat human acute T-lymphoblastic leukemia, and WI-38 human lung fibroblasts (normal cells). Doxorubicin (Dox) was used as a reference drug. Cells were incubated with test compounds for 72 h.
(§2) Cells were seeded in flat-bottomed 96-well plates at 10,000 cells per well (for A549, SNU-1, WI-38, CT-26, MDA-MB-231, 4T1, and HepG2 cells) or 20,000 cells per well (for SK-BR-3, Jurkat, and COLO201 cells) and cultivated in complete culture mediums (for composition of each medium, see the Supplementary Materials, Table S1) in a CO2 incubator at 37 °C. At the first stage of this study, the test compounds dissolved in DMSO were added to the wells with cells at final concentrations from 1 × 10^–4 to 1 × 10^–10 mol/L (A549, SK-BR-3, SNU-1, Jurkat, and WI-38) or 1 × 10^–3 to 1 × 10^–8 mol/L (CT-26, MDA-MB-231, 4T1, COLO201, and HepG2); DMSO concentration in the wells was finally 1%. A complete cultural medium and DMSO were added to the control wells at the same concentration as in the experimental wells; 0.1% Triton X-100 solution (10 µL) was added to the corresponding wells as a non-specific positive control. After adding the test compounds, the cells were incubated for 72 h in an atmosphere containing 5% CO2. After that, the nutrient medium was removed from each well (in the case of SK-BR-3, Jurkat, and COLO201, plates were pre-centrifuged at 1500 rpm for 6 min). A solution of the commercial anticancer agent Doxorubicin (Dox, Sigma-Aldrich, St. Louis, MO, USA) in DMSO was used as a reference drug. Then, 150 µL of a complete medium with the MTT reagent (PanEco, Moscow, Russia) at a concentration of 0.5 mg/mL was added and incubated for 2 h. Formazan crystals were dissolved in DMSO (200 µL) and the absorbance in the wells was measured at 540 nm and a reference wavelength of 650 nm (Sunrise, Tecan, Groding, Austria). Experiments were performed in three parallel runs. Cell viability after incubation in the presence of test compounds was calculated in relation to cell viability in the control wells according to the Formula (1):Cell viability (%) = (Aexp/Ac) × 100,(1) where Aexp is the optical density of solutions in the wells containing test compounds; Ac is the optical density of solutions in control wells without test compounds. For detailed information on cell viability of various cell lines, see the Supplementary Materials, Figures S21–S26.
(§3) At the second stage of this study, in order to more accurately calculate the CC50 (the half maximal inhibitory concentration), the cytotoxic effect of test compounds was evaluated at concentrations close to CC50 found at the first stage. The study of the cytotoxic activity of each substance towards the cells of each line was carried out in triplicate; the mean value was used to calculate CC50. The CC50 values were determined by non-linear regression analysis using Graph-Pad Prism7.

[3] = system: CT-26 murine colon carcinoma; test: MTT cytotoxicity assay, CT-26; assay type: cell-based; conditions: Mus musculus, CT26; for viability at 100 µM: CT-26, 1 × 10^–4 M, mean ± SD (n = 3), read-out: Cell viability; for CC50: CT-26, 72 h incubation, MTT, n = 3
From the text: as §1, §2, §3

[4] = MTT cytotoxicity assay, 4T1; assay type: cell-based, murine; conditions: mouse (4T1) and human (WI-38); CC50 of WI-38 divided by CC50 of 4T1; read-out: SCI (selective cytotoxicity index)
From the text: as §1, §2, §3

[5] = system: 4T1 murine mammary carcinoma; test: MTT cytotoxicity assay, 4T1; assay type: cell-based; conditions: Mus musculus; for viability at 100 µM: 4T1, 1 × 10^–4 M, mean ± SD (n = 3), read-out: Cell viability; for CC50: 4T1, 72 h incubation, MTT, n = 3
From the text: as §1, §2, §3

[6] = MTT cytotoxicity assay, MDA-MB-231; assay type: cell-based, human; conditions: human; CC50 of WI-38 divided by CC50 of MDA-MB-231; read-out: SCI (selective cytotoxicity index)
From the text: as §1, §2, §3

[7] = system: MDA-MB-231 human breast adenocarcinoma; test: MTT cytotoxicity assay, MDA-MB-231; assay type: cell-based; conditions: Homo sapiens; for viability at 100 µM: MDA-MB-231, 1 × 10^–4 M, mean ± SD (n = 3), read-out: Cell viability; for CC50: MDA-MB-231, 72 h incubation, MTT, n = 3
From the text: as §1, §2, §3

[8] = MTT cytotoxicity assay, COLO201; assay type: cell-based, human; conditions: human; CC50 of WI-38 divided by CC50 of COLO201; read-out: SCI (selective cytotoxicity index)
From the text: as §1, §2, §3

[9] = system: COLO201 human colorectal adenocarcinoma; test: MTT cytotoxicity assay, COLO201; assay type: cell-based; conditions: Homo sapiens, COLO 201; for viability at 100 µM: COLO201, 1 × 10^–4 M, mean ± SD (n = 3), read-out: Cell viability; for CC50: COLO201, 72 h incubation, MTT, n = 3
From the text: as §1, §2, §3

[10] = MTT cytotoxicity assay, HepG2; assay type: cell-based, human; conditions: human; CC50 of WI-38 divided by CC50 of HepG2; read-out: SCI (selective cytotoxicity index)
From the text: as §1, §2, §3

[11] = system: HepG2 human hepatocellular carcinoma; test: MTT cytotoxicity assay, HepG2; assay type: cell-based; conditions: Homo sapiens; for viability at 100 µM: HepG2, 1 × 10^–4 M, mean ± SD (n = 3), read-out: Cell viability; for CC50: HepG2, 72 h incubation, MTT, n = 3
From the text: as §1, §2, §3

[12] = MTT cytotoxicity assay, A549; assay type: cell-based, human; conditions: human, read-out: SCI (selective cytotoxicity index)
[13] = system: A549 human non-small-cell lung carcinoma; test: MTT cytotoxicity assay, A549; assay type: cell-based; conditions: Homo sapiens; for CC50: A549, 72 h, A549, 72 h incubation, MTT; for viability at 100 µM: A549, 1 × 10^–4 M, mean ± SD (n = 3)
[14] = MTT cytotoxicity assay, SNU-1; assay type: cell-based, human; conditions: human, read-out: SCI (selective cytotoxicity index)
[15] = system: SNU-1 human gastric carcinoma; test: MTT cytotoxicity assay, SNU-1; assay type: cell-based; conditions: Homo sapiens; for CC50: SNU1, 72 h, SNU-1, 72 h incubation, MTT; for viability at 100 µM: SNU1, SNU-1, 1 × 10^–4 M, mean ± SD (n = 3), read-out: Cell viability
[16] = CC50 of WI-38 divided by CC50 of A549 (Table 1)
[17] = CC50 of WI-38 divided by CC50 of SNU-1 (Table 1)

SMILES	CC50 at 72 h ([1]; n = 3) [µM]	viability at 72 h [1] [%]	selectivity ratio at 72 h [2]	viability at 100 µM [3] [%]	CC50 [3] [µM]	selectivity ratio at 72 h [4]	viability at 100 µM [5] [%]	CC50 [5] [µM]	selectivity ratio at 72 h [6]	viability at 100 µM [7] [%]	CC50 [7] [µM]	selectivity ratio at 72 h [8]	viability at 100 µM [9] [%]	CC50 [9] [µM]	selectivity ratio at 72 h [10]	viability at 100 µM [11] [%]	CC50 [11] [µM]	selectivity ratio at 72 h [12, 16]	CC50 ([13]; n = 3 (Table 1)) [µM]	viability at 100 µM [13] [%]	also measured
CC1COc2c(ccc(F)c2F)N1C(=O)CCCCCCCNc1ncnc2[nH]cnc12 (stereo not drawn) [Compound 1c]	50	21 ± 3	2.6	2 ± 1	19	2.2	2 ± 2	23	1.2	5 ± 5	44	73	2 ± 1	0.68	5.9	2 ± 1	8.5	1.2	43	7 ± 1	selectivity ratio at 72 h [14, 17]: 7.1; CC50 ([15]; n = 3 (Table 1)): 7 µM; viability at 100 µM [15]: 6 ± 2%
CC1COc2c(ccc(F)c2F)N1C(=O)CCCCCCCCCCNc1ncnc2[nH]cnc12 (stereo not drawn) [Compound 1d]	21	21 ± 7	1.1	2 ± 1	19	0.91	2 ± 1	23	0.48	4 ± 2	44	31	1 ± 1	0.68	2.5	2 ± 1	8.5	0.49	43	6 ± 1	CC50 at 72 h ([1]; n = 3 (Table 3)): 21 µM; selectivity ratio at 72 h ([12]; CC50 of WI-38 divided by CC50 of A549 (Table 3)): 1; CC50 ([13]; n = 3 (Table 3)): 21 µM; selectivity ratio at 72 h [14, 17]: 3; selectivity ratio at 72 h ([14]; CC50 of WI-38 divided by CC50 of SNU-1 (Table 3)): 10; CC50 ([15]; n = 3 (Table 1)): 7 µM; CC50 ([15]; n = 3 (Table 3)): 2 µM; viability at 100 µM [15]: 5 ± 1%

Source: article PMC9962735, “Synthesis and Cytotoxic Activity of the Derivatives of N-(Purin-6-yl)aminopolymethylene Carboxylic Acids and Related Compounds” (Molecules, 2023)
